Values of other authors, collected in patent publication US20180271812A1, “CALCIUM BASED CLINICAL MATERIAL WITH ANTIMICROBIAL PROPERTIES AND METHOD OF FORMING FOR PREVENTION OR TREATMENT OF INFECTION” (Biocomposites Limited, priority 2017, published 2018).
Read-outs that look alike come from different tables or passages of the source.

Columns and labels:
[1] = tested on: Staphylococcus aureus; details: breakpoint, EUCAST clinical breakpoints v7.0 (Jan 2017)
[2] = background statement, no test described
[3] = tested on: Pseudomonas aeruginosa; details: breakpoint
[4] = American Society for Microbiology Kirby-Bauer disk diffusion susceptibility test protocol
[5] = EUCAST clinical breakpoints v7.0 (Jan 2017)

| Compound | ZOI against Staphylococcus aureus, Resistant [1] [mm] | ZOI against Staphylococcus aureus, Susceptible [1] [mm] | pH [2] | ZOI against Pseudomonas aeruginosa, Resistant [3, 4] [mm] | ZOI against Pseudomonas aeruginosa, Susceptible [3, 4] [mm] | ZOI against Pseudomonas aeruginosa, Resistant [3, 5] [mm] | ZOI against Pseudomonas aeruginosa, Susceptible [3, 5] [mm] |
| --- | --- | --- | --- | --- | --- | --- | --- |
| NCC[C@H](O)C(=O)N[C@@H]1C[C@H](N)[C@@H](O[C@H]2O[C@H](CN)[C@@H](O)[C@H](O)[C@H]2O)[C@H](O)[C@H]1O[C@H]1O[C@H](CO)[C@@H](O)[C@H](N)[C@H]1O [Amikacin] | <16 | ≥18 | – | – | – | – | – |
| C/C=C/C=C/C(=O)O [Sorbic acid] | – | – | 4.76 | – | – | – | – |
| CN(C)c1cc(NC(=O)CNC(C)(C)C)c(O)c2c1C[C@H]1C[C@H]3[C@H](N(C)C)C(O)=C(C(N)=O)C(=O)[C@@]3(O)C(O)=C1C2=O [Tigecycline] | <18 | ≥18 | – | – | – | – | – |
| NC[C@H]1O[C@H](O[C@H]2[C@H](O)[C@@H](O[C@H]3O[C@H](CO)[C@@H](O)[C@H](N)[C@H]3O)[C@H](N)C[C@@H]2N)[C@H](N)C[C@@H]1O [Tobramycin] | <18 | ≥18 | – | ≤12 | ≥15 | <16 | ≥16 |
| Gentamicin | <18 | ≥18 | – | ≤12 | ≥15 | <15 | ≥15 |
